This note sets out measurements from ChEMBL document CHEMBL2177021, “Flavaglines as potent anticancer and cytoprotective agents” (J Med Chem, 2012).

The test system of one data set is KB. As to conditions: Homo sapiens, 72 h.
For another data set, the system named is HCT-116. As to conditions: Homo sapiens, HCT-116, 72 h.
Data set [1] can be described thus: Cytotoxicity against human HL60R cells overexpressing Pgp incubated for 72 hrs by MTS assay. (In general: Tetrazolium assays rely on reduction of a dye to a coloured formazan, in cell work by metabolically active cells.)
The subject of the next data set is HL-60. Put plainly: cells. The following applies: Homo sapiens, HL-60, 72 h.
Data set [2] has as its system H9c2. Put plainly: Cardioprotection in rat H9c2 cells assessed as reduction in doxorubicin-induced toxicity at 100 nM pre-treated 10 hrs before doxorubicin challenge and measured 14 hrs post doxorubicin challenge by propidium iodide and annexin V staining. Format: functional, cell-based.
Data set [3] relates to H9c2. In words: Cardioprotection in rat H9c2 cells assessed as reduction in doxorubicin-induced toxicity at 10 nM pre-treated 10 hrs before doxorubicin challenge and measured 14 hrs post doxorubicin challenge by propidium iodide and annexin V staining. Format: functional, cell-based.
Data set [4] is filed under the species Rattus norvegicus. Put plainly: Neuroprotection in Wistar rat DA neurons assessed as reduction in MPP+-induced neurotoxicity at 10 nM pre-treated 1 day before MPP+ by tyrosine hydroxylase detection based immunocytochemistry. Format: functional.
Data set [5] is filed under the species Mus musculus. In words: Cardioprotective effect in mouse assessed as attenuation of cardiac fibrosis by measuring reduction in mouse mortality. The arrangement: scale not given: the % may be the effect or the level left. Format: functional, Heart.
Data set [6] is filed under the species Mus musculus. Put plainly: Cardioprotective effect in mouse assessed as attenuation of cardiomyocyte apoptosis by measuring reduction in mouse mortality. On the set-up: scale not given: the % may be the effect or the level left. Format: functional.
Data set [7] is filed under the species Rattus norvegicus. In words: Neuroprotection in Wistar rat DA neurons assessed as reduction in MPP+-induced neurotoxicity at 1 nM pre-treated 1 day before MPP+ by tyrosine hydroxylase detection based immunocytochemistry. It is filed as functional.
The species named for data set [8] is Rattus norvegicus. In words: Neuroprotection in Wistar rat DA neurons assessed as reduction in MPP+-induced neurotoxicity at 0.1 to 1000 nM pre-treated 1 day before MPP+ by tyrosine hydroxylase detection based immunocytochemistry. It is filed as functional.
A short description of data set [9]: Toxicity in mouse cerebellar granule neurons assessed as induction of apoptosis at 0.25 to 10 nM incubated for 48 hrs by MTT assay. The following applies: cerebellar granule neurone, 0.01 µM.
The species entered for data set [10] is Rattus norvegicus. In words: Neuroprotection in Wistar rat DA neurons assessed as reduction in MPP+-induced neurotoxicity at 1 to 100 nM pre-treated 1 day before MPP+ by tyrosine hydroxylase detection based immunocytochemistry. It is filed as functional.
The species entered for data set [11] is Rattus norvegicus. Put plainly: Neuroprotection in Wistar rat DA neurons assessed as reduction in MPP+-induced neurotoxicity at 1 to 1000 nM pre-treated 1 day before MPP+ by tyrosine hydroxylase detection based immunocytochemistry. Format: functional.
In data set [12] the test system is Cerebellar granule neurone. Put plainly: Neuroprotection in mouse cerebellar granule neurons assessed as reduction in cisplatin-induced neurotoxicity at 1 to 5 nM incubated simultaneously with cisplatin for 48 hrs by MTT assay. It is filed as functional.
For data set [13], the system named is Cerebellar granule neurone. Put plainly: Neuroprotection in mouse cerebellar granule neurons assessed as reduction in cisplatin-induced neurotoxicity at 0.25 to 10 nM incubated simultaneously with cisplatin for 48 hrs by MTT assay. It is filed as functional.
In data set [14] the test system is Cerebellar granule neurone. Put plainly: Neuroprotection in mouse cerebellar granule neurons assessed as reduction in cisplatin-induced neurotoxicity at 5 nM incubated simultaneously with cisplatin for 48 hrs by MTT assay. Format: functional.
For data set [15], the species on record is Rattus norvegicus. Put plainly: Neuroprotection in Wistar rat DA neurons assessed as reduction in MPP+-induced neurotoxicity at 10 uM pre-treated 1 day before MPP+ by tyrosine hydroxylase detection based immunocytochemistry. Format: functional.
The species named for data set [16] is Rattus norvegicus. Put plainly: Neuroprotection in Wistar rat DA neurons assessed as reduction in MPP+-induced neurotoxicity at 100 nM pre-treated 1 day before MPP+ by tyrosine hydroxylase detection based immunocytochemistry. It is filed as functional.
The subject of data set [17] is Cerebellar granule neurone. In words: Neuroprotection in mouse cerebellar granule neurons assessed as reduction in cisplatin-induced neurotoxicity at 10 nM incubated simultaneously with cisplatin for 48 hrs by MTT assay. It is filed as functional.

Activity calls are given as the source filed them. No cut-off for these calls is given here.

Description for HL-60: Cytotoxicity against human HL60 cells incubated for 72 hrs by MTS assay

The IC50 is the point on the concentration scale where inhibition reaches its midpoint. As to `COC(=O)[C@H]1[C@@H](O)[C@@]2(O)c3c(OC)cc(OC)cc3O[C@@]2(c2ccc(Cl)cc2)[C@@H]1c1ccccc1`, the IC50 came to 2.4 nM in the data set on KB, 19 nM in the data set with HCT-116, 13 nM in data set [1] and 29 nM in the data set on HL-60.
The compound `CC(=O)O[C@@]12CO[C@@H]1C[C@H](O)[C@@]1(C)C(=O)[C@H](O)C3=C(C)[C@@H](OC(=O)[C@H](O)[C@@H](NC(=O)OC(C)(C)C)c4ccccc4)C[C@@](O)([C@@H](OC(=O)c4ccccc4)[C@H]21)C3(C)C` [DOCETAXEL] showed an IC50 in data set [1] of 531 nM.
As to `COc1cc(OC)c2c(c1)O[C@@]1(c3ccc(Br)cc3)[C@H](c3cccc(F)c3)C[C@H](NC(N)=O)[C@@]21O`, the 50% inhibitory concentration (IC50) was determined as 2.9 nM with KB, 2.1 nM with HCT-116 and 3.3 nM with HL-60.
Consider `COc1cc(OC)c2c(c1)O[C@@]1(c3ccc(Br)cc3)[C@H](c3cccc(F)c3)[C@@H](C(N)=O)[C@@H](O)[C@@]21O`, for which the IC50 in the data set with KB came to 1.2 nM; in the data set on HCT-116, 1.2 nM; in [1], 3.3 nM; in the data set on HL-60 it was 1.4 nM. For the same compound, the outcome in the data set on H9c2 [2] was inactive. Moreover, the result in the data set with H9c2 [3] was Active.
Take `COc1cc(OC)c2c(c1)O[C@@]1(c3ccc(Cl)cc3)[C@H](c3cccc(F)c3)C[C@H](NC(=O)N(C)C)[C@@]21O`: the outcome in the data set listed under Rattus norvegicus [4] was inactive. The IC50 in the data set with KB turned out to be 2.1 nM; with HCT-116, 1.9 nM; with HL-60 it was 3.2 nM. Also, the outcome with H9c2 [2] and in the data set with H9c2 [3] was Active.
Turning to `COc1cc(OC)c2c(c1)O[C@@]1(c3ccc(Br)cc3)[C@H](c3ccccc3)C[C@@H](O)[C@@]21O`, the outcome in the data set listed under Rattus norvegicus [4], with H9c2 [2] and with H9c2 [3] was Active. Moreover, the half-maximal inhibitory concentration (IC50) is 2.4 nM in the data set with KB, 5.8 nM in the data set on HCT-116, 4.5 nM in data set [1] and 3.8 nM with HL-60. Besides, the Activity in the data set listed under Mus musculus [5] and in the data set filed under Mus musculus [6] was 50% each time.
Regarding `COc1cc(OC)c2c(c1)O[C@@]1(c3ccc(Br)cc3)[C@H](c3cccc(F)c3)C[C@@H](O)[C@@]21O`, the IC50 with KB was 10 nM; with HCT-116, 5.3 nM; in [1] it was 3.1 nM; in the data set with HL-60 it was 8.9 nM. Further, the outcome in the data set with H9c2 [2] and in the data set on H9c2 [3] was Active.
For `COc1cc(OC)c2c(c1)O[C@@]1(c3ccc(Br)cc3)[C@H](c3cccc(F)c3)C[C@H](NC(=O)CN(C)C)[C@@]21O`, the IC50 turned out to be 5.8 nM in the data set on KB, 5 nM with HCT-116, 5.6 nM in data set [1] and 4.8 nM with HL-60. Moreover, the outcome in the data set on H9c2 [2] and in the data set on H9c2 [3] was Active.
`CC[C@]1(O)C[C@@H]2CN(CCc3c([nH]c4ccccc34)[C@@](C(=O)OC)(c3cc4c(cc3OC)N(C)[C@H]3[C@@](O)(C(=O)OC)[C@H](OC(C)=O)[C@]5(CC)C=CCN6CC[C@]43[C@@H]65)C2)C1` [VINBLASTINE] displayed an IC50 in data set [1] of over 100 nM.
Turning to `COc1cc(OC)c2c(c1)O[C@@]1(c3ccc(Br)cc3)[C@H](c3cccc(F)c3)C[C@H](NC(=O)N(C)C)[C@@]21O`, the outcome in the data set listed under Rattus norvegicus [7], in the data set listed under Rattus norvegicus [8], in the data set with H9c2 [2] and with H9c2 [3] was Active. Besides, the IC50 with KB worked out at 3.6 nM; in the data set on HCT-116, 2.4 nM; in data set [1] it was 2.2 nM; in the data set with HL-60, 4.1 nM. In addition, in data set [9], the Activity entry is “Non-toxic”.
Regarding `COC(=O)[C@H]1[C@@H](O)[C@@]2(O)c3c(OC)cc(OC)cc3O[C@@]2(c2ccc(Br)cc2)[C@@H]1c1cccc(F)c1`, the outcome in the data set listed under Rattus norvegicus [10] was Active. Besides, the half-inhibitory concentration (IC50) in the data set with KB came out at 2.8 nM; in the data set on HCT-116 it was 2.4 nM; in [1], 14 nM; with HL-60, 3.2 nM.
In the case of `COc1cc(OC)c2c(c1)O[C@@]1(c3ccc(Br)cc3)[C@H](c3cccc(F)c3)C[C@H](NC(=O)CO)[C@@]21O`, the IC50 in the data set on KB came to 37 nM; in the data set on HCT-116 it was 22 nM; in data set [1] it was 42 nM; in the data set on HL-60 it was 31 nM. Also, the outcome in the data set with H9c2 [2] was Active. Also, in the data set with H9c2 [3], the result was inactive.
`COc1cc(OC)c2c(c1)O[C@@]1(c3ccc(Cl)cc3)[C@H](c3ccccc3)C[C@@H](O)[C@@]21O`: the IC50 in the data set with KB was found to be 6.6 nM; with HCT-116, 4.6 nM; in [1] it was 2.4 nM; in the data set with HL-60 it was 5.9 nM. For the same compound, the result with H9c2 [2] and in the data set with H9c2 [3] was Active.
Consider `COC(=O)[C@H]1[C@@H](O)[C@@]2(O)c3c(OC)cc(OC)cc3O[C@@]2(c2ccc(OC)cc2)[C@@H]1c1cccc(F)c1`, for which the half-maximal inhibitory concentration (IC50) with KB stood at 9.9 nM; with HCT-116 it was 5.2 nM; in data set [1], 28 nM; in the data set with HL-60, 20 nM.
Turning to `COC(=O)N[C@H]1C[C@@H](c2cccc(F)c2)[C@]2(c3ccc(Cl)cc3)Oc3cc(OC)cc(OC)c3[C@]12O`, the outcome in the data set filed under Rattus norvegicus [8] and in the data set with H9c2 [2] was Active. Also, the concentration for half-maximal inhibition (IC50) in the data set on KB amounted to 50 nM; in the data set on HCT-116 it was 38 nM; in the data set on HL-60, 71 nM.
Turning to `COc1cc(OC)c2c(c1)O[C@@]1(c3ccc(Br)cc3)[C@H](c3ccccc3)C[C@H](NC=O)[C@@]21O`, the result (in the data set listed under Rattus norvegicus [11]; in the data set filed under Rattus norvegicus [10]; in the data set with H9c2 [3]; in data set [12]; in data set [13]) was Active. This compound displayed a 50% inhibitory concentration (IC50) in data set [1] of 1.7 nM. In data set [9], the Activity result is “Non-toxic”.
For the compound `COc1ccc([C@@]23Oc4cc(OC)cc(OC)c4[C@]2(O)[C@H](O)C[C@H]3c2cccc(F)c2)cc1`, the outcome (in data set [14]; in the data set listed under Rattus norvegicus [16]; in the data set with H9c2 [2]; with H9c2 [3]) was Active. The result (in the data set filed under Rattus norvegicus [15]; in data set [17]) was inactive. Further, the IC50 is 41 nM in the data set with KB, 23 nM with HCT-116, 60 nM in [1] and 94 nM with HL-60. Further, in data set [9], the Activity result is on record as “Non-toxic”.
With `COc1cc(OC)c2c(c1)O[C@@]1(c3ccc(Br)cc3)[C@H](c3cccc(F)c3)C[C@H](NC=O)[C@@]21O`, the IC50 with KB was 3.5 nM; in the data set on HCT-116 it was 1.9 nM; in data set [1] it was 1.4 nM; in the data set on HL-60, 3.4 nM. Also, in the data set with H9c2 [3], the result was Active.
On to `CCC(=O)N[C@H]1C[C@@H](c2cccc(F)c2)[C@]2(c3ccc(Br)cc3)Oc3cc(OC)cc(OC)c3[C@]12O`, for which the IC50 was found to be 7.8 nM in the data set on KB, 5.3 nM in the data set with HCT-116, 4.9 nM in [1] and 6.2 nM with HL-60. The outcome in the data set on H9c2 [2] was inactive. Also, the outcome in the data set with H9c2 [3] was Active.
For the compound `COc1cc(OC)c2c(c1)O[C@@]1(c3ccc(Cl)cc3)[C@H](c3cccc(F)c3)C[C@H](NC=O)[C@@]21O`, the 50% inhibitory concentration (IC50) was determined as 10 nM with KB, 8.2 nM with HCT-116 and 13 nM with HL-60. Also, the result in the data set on H9c2 [2] and with H9c2 [3] was Active.
For `COc1cc(OC)c2c(c1)O[C@@]1(c3ccc(Br)cc3)[C@H](c3cccc(F)c3)C[C@H](NC(C)=O)[C@@]21O`, the half-maximal inhibitory concentration (IC50) amounted to 8.4 nM in the data set on KB, 7.5 nM in the data set with HCT-116, 7.1 nM in data set [1] and 10 nM in the data set with HL-60. In the data set on H9c2 [2], the outcome was inactive. The outcome with H9c2 [3] was Active.
